Values quoted from earlier work in US20150342920A1, “DERMATOLOGICAL COMPOSITIONS COMPRISING AT LEAST ONE RETINOID COMPOUND, AN ANTI-IRRITANT COMPOUND AND BENZOYL PEROXIDE” (GALDERMA RESEARCH & DEVELOPMENT, priority 2007, published 2015).

## O=C(OOC(=O)c1ccccc1)c1ccccc1 [benzoyl peroxide]
In solution, ethanol, propylene glycol and mixtures of PEG 400 and water, depends on type and concentration of solvent
  degradation of benzoyl peroxide in solution: degrades more or less rapidly
In suspension (disperse form) in water and in propylene glycol, after 90 days of storage
  degradation of benzoyl peroxide in suspension: not degraded
